Experimental data reported in patent publication US5045319A, “Transdermal dosage unit, system and process” (Rutgers, The State University of New Jersey, priority 1988, dated 1991).

Columns and labels:
[1] = in-vitro release of propranolol from multilaminate transdermal device (Valia-Chien diffusion cell, without skin); format: physicochemical; details: for RELEASE RATE OF PROPRANOLOL: Example 2, SPE-m-TAD
Procedure: (§1) Both in-vitro release and skin permeation studies can then be conducted by mounting the device (with or without skin) onto a Valia-Chien diffusion cell at 37° C. In-vivo studies can be conducted by placing the patch on the pinna (ear) of a rabbit and taking blood samples which can be analyzed for propranolol (results on the attached sheets).
The release rate of drug from the SPE-m-TAD can be changed by the alteration of the drug load in the outer drug laminate.

[2] = in-vitro skin permeation of propranolol from TMAD (Valia-Chien diffusion cell, with skin); format: in vitro ADME; details: delivered from TMAD
Procedure: as §1
In this case, the enhancer laminate would be fabricated by combining an aliphatic alcohol with adhesive in a 1.25:10 ratio. The enhancer laminate would then be solvent cast and laminated as in Example 1. The devices can then be evaluated in-vitro and in-vivo. (results shown on the attached sheets).

[3] = in-vivo plasma propranolol after topical application of TMAD on inner pinna of rabbit; details: FIG. A-7, rabbits
Procedure: as §1

CC(C)NCC(O)COc1cccc2ccccc12 (racemic) [propranolol, Propranolol]
RELEASE RATE OF PROPRANOLOL ([1]; propranolol drug load in outer drug laminate 3%): 48.1 ug cm^-2 hr^-1 | RELEASE RATE OF PROPRANOLOL ([1]; propranolol drug load in outer drug laminate 5%): 49.9 ug cm^-2 hr^-1 | RELEASE RATE OF PROPRANOLOL ([1]; propranolol drug load in outer drug laminate 7%): 52.2 ug cm^-2 hr^-1 | RELEASE RATE OF PROPRANOLOL ([1]; propranolol drug load in outer drug laminate 20%): 59.1 ug cm^-2 hr^-1 | drug release kinetics ([1]; FIG. A-2, only extremely small particle size (1.5 μm) propranolol crystals in outer laminate layer): Device-controlled zero-order drug release kinetics was achieved | zero-order release profile of propranolol from TMAD, effect of skin permeation enhancers ([1]; FIG. A-3, various skin permeation enhancers in contact adhesive polymer coating): did not affect the zero-order release profile | overall release of propranolol from the device ([1]; SPE-m-TAD, decreasing drug load in outer drug laminate, particle size 1.5 microns): can be reduced, while still maintaining zero-order release kinetics | enhancement in skin permeation rate of propranolol by alkyl alcohols ([2]; FIG. A-4, dependence on alkyl chain length n of alcohols): The rate of skin permeation increases as increasing the alkyl chain length of the alcohols and reaches the maximum level at n=12~14 | enhancement in skin permeation rate of propranolol by alkanoic acids ([2]; FIG. A-5, dependence on alkyl chain length n of acids): The rate of skin permeation shows a sinoidal dependence on the alkyl chain length of the acids and with the maximum rates at n=3 and 16 | enhancement in skin permeation rate of propranolol by esters of Lauric Acid (n=12) ([2]; FIG. A-6, dependence on alkyl chain length n of esters): The rate of skin permeation increases first and then levels off as increasging the alkyl chain length of the esters and reaches the maximum level at n=2 | plasma concentration profiles of propranolol ([3]; 24-hr topical application of TMAD on inner pinna ear): long-acting plasma concentration profiles | systemic bioavailability of propranolol, as shown by plasma levels ([3]; 24-hr topical application of TMAD with various skin permeation enhancers): improved the systemic bioavailability, as shown by elevated constant plasma levels
